Values joined by “and” are separate entries in the source; they are usually repeats but may differ in a detail not shown here. Identical values can stand only once.
Experiments:
[1] = Plasma lipid levels after chronic i.p. dosing; format: in vivo, female C57BL/6J mice; conditions: rapamycin 8 mg/kg, compound 390 12 mg/kg i.p. every other day; versus vehicle
Description: (§1) 10-week old female C57BL/6J mice were given intraperitoneal injections of 8 mg/kg rapamycin (LC laboratories), 12 mg/kg compound 390 or vehicle every other day for three weeks (N=5 mice/group), such as to mimic chronic exposure conditions. 24 hours after the last injection, tissues were dissected from the mice and immediately frozen in liquid nitrogen. The tissues were homogenized using the Omni TH homogenizer (Omni International) on ice in RIPA buffer and then centrifuged at 13,000 rpm for 15 minutes at 4° C. The supernatants were collected and protein concentration was determined using the DC protein assay (Biorad).
Plasma lipid levels were determined at the end of the three-week exposure. Free fatty acids in the serum were measured by the HR Series NEFA-HR(2) (Wako Diagnostics, Richmond, Va.). Triglycerides and cholesterol in serum were measured by Triglycerides Liquicolor Test and Cholesterol Liquicolor Test (Stanbio laboratory, Boerne, Tex.), respectively.

mTORC1 [2] = target: T1, mTORC1 (Homo sapiens, UniProt P42345+P62942); experiment: AlphaLISA SureFire in PC3 cells, phosphorylation of S6 at Ser240/Ser244 (mTORC1 inhibition, selectivity ratios); format: cell-based
T1 construct: endogenous in cells; host or cells: PC3 cells
Description: PC3 cells were maintained in F12K media (ATCC/GIBCO, Cat# ATCC 30-2004) supplemented with additional 10% FBS (Gemini, cat#100-106), 1% Penicillin/Streptomycin (Life Technologies, cat #15140-122), and 2 mM L-Glutamine (Life Technologies, cat#25030) and cultured at 37° C. For AlphaLISA experiments, cells were seeded in 96-well plates for 24 hours and treated at various concentrations of compound (from approx. 8 fM to 10 μM) for 24 hours. Cells were harvested by lysis in the buffer supplied with the AlphaLISA kit. […] Cells from plates were lysed and incubated for 10 min at room temperature while shaking. Cell lysates were incubated with acceptor mix for 2 hours at room temperature; the donor mix was then added and the resulting solution was incubated for 2 hours at room temperature. AlphaLISA® signal was determined on a Fusion-Alpha FP HT (Perkin Elmer). Percent inhibition was calculated by comparison to the highest inhibition value obtained in the response-concentration curve. IC50s were calculated using Prism software.

Tg4510 mice = experiment: Morris water maze test in Tg4510 mice; format: in vivo; conditions: 12 mg/kg, 4-weeks treatment, versus vehicle-treated Tg4510 mice
Description: (§2) Female Tg4510 and control mice were purchased from the Jackson Laboratory (Bar Harbor, Me.). All mice were examined and weighed prior to initiation of the study to ensure adequate health and suitability and were caged under controlled temperature (20-23° C.) and relative humidity (maintained around 50%). All tests were performed during the animal's light cycle phase. Mice received every-other-day injections of either vehicle or compound 390 (12 mg/kg) in the following groups: (a) wild-type (WT) mice receiving vehicle (n=16); (b) Tg4510 mice receiving vehicle (n=15) and (c) Tg4510 mice receiving DL390 (12 mg/kg; n=15)
The test was performed in a circular tank, measuring 48″ in diameter. Extra-maze cues were mounted around the water tank. On 5 consecutive days of the week, test sessions were conducted with the platform submerged approximately 1.3 cm below the surface of the water. On each day, there were 4 trials, 60 s long. Approximately 15 min elapsed between each trial. On the fifth day of acquisition training, the last trial (out of 4) consisted of 60 s without the platform.

mTORC1 [3] = target: T1, mTORC1; experiment: Western blot of PC3 cells treated with 100 nM compound, mTORC1 readout (pS6k/S6k); format: cell-based
Description: Protein concentrations were determined using the DC protein assay (Biorad). Equal amounts of protein were resolved by SDS-PAGE and transferred to nitrocellulose membrane using the Nu-Page system. […] The following day, blots were washed 3 times in TBST, incubated for 2 h with secondary antibodies, and finally washed an additional 3 times in TBST.

mTORC1 [4] = target: mTORC1 (Mus musculus, UniProt P26883+Q9JLN9); experiment: Western blot of mouse tissues after 3 weeks i.p. dosing, mTORC1 (P-S6/total S6); format: in vivo, female C57BL/6J mice; conditions: 12 mg/kg i.p. every other day for 3 weeks
Description: as §1
The mTORC1/2 inhibition was determined by Western blots. Equal amounts of protein were resolved by SDS-PAGE and transferred to nitrocellulose membrane using the Invitrogen Nu-Page system. The membranes were blocked for 1 h in 5% milk and incubated overnight in the appropriate antibodies. The following day, blots were washed 3 times in TBST, incubated for 2 h with secondary antibodies (donkey anti rabbit hrp conjugated), and finally washed an additional 3 times in TBST. ECL Prime (Amersham) was used to detect the proteins of interest and ImageJ software was used to quantify the band intensity of the Western blots.

[5] = test system: autophagy markers (pULK/ULK, Beclin-1, Vps34, LC3B, p62); experiment: Autophagy markers in brain of Tg4510 mice; format: in vivo; conditions: 12 mg/kg i.p., 4 weeks
Description: as §2
A number of autophagy markers were measured both in the cortex and hippocampus tissue to assess the status of the autophagic clearance mechanism across the three study groups. Specifically, pULK/ULK, Beclin-1, Vps34, LC3B and p62 were measured using the appropriate antibodies (Cell Signaling Technology).

**Q.** With `CO[C@H]1CC2CC[C@@H](C)[C@@](O)(O2)C(=O)C(=O)N2CCCC[C@H]2C(=O)O[C@H]([C@@H](C)CC2CCC(O)CC2)CC(=O)[C@@H](C)/C=C(\C)[C@H](O)[C@H](O)C(=O)[C@@H](C)C[C@H](C)/C=C/C=C/C=C/1C` (stereo partly shown) [compound 390, 27-O-Desmethyl-39-Desmethoxy Rapamycin] as the molecule, how does the plasma cholesterol [1] read?
**A.** did not produce any changes

**Q.** What about the “plasma free fatty acids” value [1] of the same molecule?
**A.** did not produce any changes

**Q.** What about the plasma triglycerides [1] of the same molecule?
**A.** did not produce any changes

**Q.** What about the “improvement of mTORC1 over mTORC2 selectivity compared to rapamycin (average)” value (mTORC1 [2]; AlphaLISA IC50 ratios) of the same molecule?
**A.** 51 fold

**Q.** What about the “improvement of mTORC1 over mTORC2 selectivity compared to rapamycin (range)” value (mTORC1 [2]; AlphaLISA IC50 ratios) of the same molecule?
**A.** 52-63 fold

**Q.** What about the “Average IC50^mTORC2/IC50^mTORC1” value (mTORC1 [2]; average of four replicates, 24 h) of the same molecule?
**A.** 429.90

**Q.** What about the “IC50^mTORC2/IC50^mTORC1” value (mTORC1 [2]; single replicates #1-#4 (N = 3 each), mTORC2 IC50 of the measurement divided by average mTORC1 IC50, 24 h, listed as nID390) of the same molecule?
**A.** 477.07 and 533.79 and 445.85 and 262.89

**Q.** And the “behavioral performance, total distance travelled during acquisition days” value (Tg4510 mice)?
**A.** strong trends of behavioral improvement

**Q.** What about the “mTORC1 inhibition (pS6k/S6k)” value (mTORC1 [3]) of the same molecule?
**A.** full mTORC1 inhibition

**Q.** What about the “mTORC1 inhibition in tissues” value (mTORC1 [4]; soleus muscle and liver) of the same molecule?
**A.** only partially inhibits mTORC1

**Q.** And the “mTORC1 inhibition in tissues” value (mTORC1 [4]; visceral fat, gastrocnemius muscle, pancreas, lung and kidney)?
**A.** strong inhibition of mTORC1

**Q.** What about the “Beclin-1 activity (initiation phase of autophagy)” value [5] of the same molecule?
**A.** nearly full restoration of Beclin-1 activity

**Q.** What about the “ULK1 phosphorylation (induction phase of autophagy)” value [5] of the same molecule?
**A.** reduction of ULK1 phosphorylation

**Q.** What about the “accumulated LC3B-II levels (maturation and lysosomal clearance)” value [5] of the same molecule?
**A.** substantial reduction

**Q.** And the “accumulated p62 levels (maturation and lysosomal clearance)” value [5]?
**A.** substantial reduction

**Q.** What about the “autophagy in the brain, all stages” value [5] of the same molecule?
**A.** substantial and statistically significant upregulation

Source: patent US20180258100A1, “RAPAMYCIN ANALOGS SHOWING IMPROVED mTORC1 SPECIFICITY” (priority 2015, published 2018)
